Data reported in patent publication US4493830A, “Method for the treatment of idiopathic headache attacks, in particular migraine and cluster headache” (Istituto Farmacologico Serono of Rome, priority 1983, dated 1985).
Structures can show the parent of a compound that is named as a salt.

Tested on: cluster headache attacks
Experiment: Double-blind randomized trial of treatment of cluster headache attacks in hospitalized patients
Format: in vivo
Procedure: Six consenting patients, suffering from cluster headache, were hospitalized. Two presented with a chronic state (more than one year) while the other four were in an attack stage at the moment of entering hospital. The patients received no other pharmaceuticals during the four days prior to commencing the study.
In each patient attacks lasted an average of 1-2 hours.
At the beginning of the attack, 10 minutes after the onset of pain, the patients received one of the following treatments:
500 mcg Somatostatin in 50 ml physiological solution, i.v.;
1 ml physiological solution i.m.;
50 ml physiological solution i.v.;
250 mcg Ergotamine Tartrate in 1 ml physiological solution i.m.
Duration of venous infusion was 20 minutes (50 drops per min.), and was started simultaneously with the i.m. injection. Treatments and patients were randomized and the trial was carried out in double blind.
In total, 9 attacks were treated for each patient, who received treatments (a) (b) or (c) 3 times; in this way, each treatment was used 18 times.
Pain intensity was ascertained every 10 minutes on a visible scale. Values were recorded on the ordinate against the time which was recorded on the abscissa.
3 parameters were used for statistical assessment; maximum intensity of pain expressed in arbitrary units; duration of pain expressed in minutes; area below the curve expressed in arbitrary units. During infusion with Somatostatin, blood pressure and pulse rates were recorded every 10 minutes for an hour.

[1] = versus physiological solution, Somatostatin 500 mcg i.v. infusion or Ergotamine Tartrate 250 mcg i.m.

SMILES	Reduction of pain duration as compared with placebo (Somatostatin 500 mcg i.v. infusion or Ergotamine Tartrate 250 mcg i.m.) [%]	Maximum pain intensity (Somatostatin 500 mcg i.v. infusion or Ergotamine Tartrate 250 mcg i.m., physiological solution 7.1±0.3) [arbitrary units]	Area under the pain curve (Somatostatin 500 mcg i.v. infusion or Ergotamine Tartrate 250 mcg i.m., physiological solution 43.8±6.2) [arbitrary units]	Duration of pain (cluster headache patients, Somatostatin 500 mcg i.v. infusion over 20 min or Ergotamine Tartrate 250 mcg i.m., 18 attacks per treatment, physiological solution 93±10) [min]	Reduction of maximum pain intensity [1] [%]	Reduction of the pain area [1] [%]	Variations in blood pressure or pulse rates during infusion (500 mcg i.v. infusion, recorded every 10 minutes for an hour)	Incidence of side-effects as compared with Ergotamine (human, in vivo)
CN1C[C@H](C(=O)N[C@]2(C)O[C@@]3(O)[C@@H]4CCCN4C(=O)[C@H](Cc4ccccc4)N3C2=O)C=C2c3cccc4[nH]cc(c34)C[C@H]21 [Ergotamine, Ergotamine Tartrate]	41	6.2±0.3	23.3±3.1	55 ± 8	13	47		
C[C@H](N)C(=O)NCC(=O)N[C@H]1CSSC[C@@H](C(=O)O)NC(=O)[C@H](CO)NC(=O)[C@H]([C@@H](C)O)NC(=O)[C@H](Cc2ccccc2)NC(=O)[C@H]([C@@H](C)O)NC(=O)[C@H](CCCCN)NC(=O)[C@H](Cc2c[nH]c3ccccc23)NC(=O)[C@H](Cc2ccccc2)NC(=O)[C@H](Cc2ccccc2)NC(=O)[C@H](CC(N)=O)NC(=O)[C@H](CCCCN)NC1=O [Somatostatin]							nor were there significant variations	minor incidence of side-effects
